The record followed here is patent US9630947B2, “Therapeutic compounds and related methods of use” (OTSUKA PHARMACEUTICAL CO., LTD., priority 2009, dated 2017).

pIC50: −log10 of the molar value.

The target of the assay is T1, purified STEP46 enzyme (Homo sapiens, UniProt P54829).
T1 sequence (P54829 1-565): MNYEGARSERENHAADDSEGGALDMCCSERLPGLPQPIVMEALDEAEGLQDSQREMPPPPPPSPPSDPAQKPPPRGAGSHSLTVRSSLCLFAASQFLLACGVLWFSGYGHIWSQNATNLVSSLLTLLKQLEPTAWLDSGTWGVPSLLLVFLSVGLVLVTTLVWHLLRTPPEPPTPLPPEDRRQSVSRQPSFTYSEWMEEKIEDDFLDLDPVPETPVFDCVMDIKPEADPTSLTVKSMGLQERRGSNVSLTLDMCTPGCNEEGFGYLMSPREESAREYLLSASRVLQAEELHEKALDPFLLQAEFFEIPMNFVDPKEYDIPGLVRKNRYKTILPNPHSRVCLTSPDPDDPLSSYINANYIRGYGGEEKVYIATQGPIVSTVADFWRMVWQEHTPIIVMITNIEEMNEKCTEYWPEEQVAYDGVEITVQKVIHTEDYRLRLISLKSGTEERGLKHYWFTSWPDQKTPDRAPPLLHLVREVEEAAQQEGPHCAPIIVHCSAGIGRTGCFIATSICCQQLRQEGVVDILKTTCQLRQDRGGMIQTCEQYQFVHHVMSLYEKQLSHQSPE
Briefly: STEP46 biochemical assay (DiFMUP fluorescence phosphatase assay). To be noted: DiFMUP 10 μM, read-out: STEP IC50. Here is the method: STEP46 Biochemical Assays
Serial dilutions of compounds were performed in 100% DMSO and 1 uL of compounds were dispensed into 384-well black polystyrene plates (Corning, NY). Compounds were incubated with 24 uL of buffer containing 50 mM Hepes, 1 mM DTT, 0.02% Brij35, 1 ng/well purified STEP46 enzyme for 30 min at room temperature. The reaction was initiated by addition of 25 uL of DiFMUP (6, 8-difluoro-4-methylumbelliferyl phosphate) (InVitrogen, CA) with a final concentration of 10 μM and incubated at 27° C. for 90 min. Final DMSO concentration is 2%. Plates were read with florescence intensity at excitation/emission of 360/460 nm using a PheraStar plate reader (BMG Labtech, NC).
Data were expressed as percentage (%) inhibition of enzyme activity. 0% inhibition is defined as the RFUs (relative fluorescence units) in the absence of compounds and 100% inhibition is defined as RFUs in the absence of STEP46 enzyme. IC50 values of compounds with inhibitory activity against STEP46 were determined by GraphPad Prism (version 4.03) using four parameter logistic equation. Some compounds act as activators. For compounds showing STEP46 enzymatic activation, data are represented as percentage of inhibition but with negative values at three representative concentrations (25, 50 and 100 uM).
For orientation: pIC50 means −log10 of the IC50, conventionally taken in molar units. Regarding `CNc1nc(-c2cccnc2)nc2cc(-c3ccc(F)cc3)ccc12` [Compound 1360], the pIC50 was 5.00 to 6.00.

As for `COc1ccc2nc(-c3cccnc3)nc(Oc3ccc4[nH]c(=O)ccc4c3)c2c1` [Compound 346], the pIC50 was 5.00 to 6.00.

For the compound `COc1ccc2nc(-c3cccnc3)nc(Nc3nc(C4CCCCC4)cs3)c2c1` [Compound 433], the pIC50 is 5.00 to 6.00.

In the case of `Fc1cccc(-c2ccc3nc(-c4cccnc4)nc(Nc4ccc(F)c(Cl)c4)c3c2)c1` [Compound 634], the pIC50 is 5.00 to 6.00.

Regarding `Fc1ccc(Nc2nc(-c3cccnc3)nc3cc(-c4cncnc4)ccc23)cc1Cl` [Compound 678], the negative-log IC50 (pIC50) is 5.00 to 6.00.

For the compound `COc1ccc2nc(-c3cccnc3)nc(Nc3ccc4sc(=O)n(C)c4c3)c2c1` [Compound 327], the pIC50 was 5.00 to 6.00.

Regarding `CNc1nc(-c2cccnc2)nc2cc(-c3ccccc3Cl)ccc12` [Compound 1352], the pIC50 was under 5.00.

On to `COc1ccc(-c2ccc3nc(-c4cccnc4)nc(Nc4ccc(F)c(Cl)c4)c3c2)c(OC)n1` [Compound 655], for which the negative-log IC50 (pIC50) was over 6.00.

Turning to `COc1ccc2nc(-c3cccnc3)nc(Nc3nc(-c4cc(F)cc(F)c4)cs3)c2c1` [Compound 457], the pIC50 was 5.00 to 6.00.

As for `COc1ccc2nc(-c3cccnc3)nc(Nc3nc(-c4ccc(F)c(F)c4)cs3)c2c1` [Compound 445], the pIC50 was over 6.00.

Take `O=C(c1ccc(-c2ccc3nc(-c4cccnc4)nc(Nc4ccc(F)c(Cl)c4)c3c2)cc1)N1CCCCC1` [Compound 665]: the pIC50 is 5.00 to 6.00.

`COc1ccc2nc(-c3cccnc3)nc(Nc3nc(-c4ccccc4)cs3)c2c1` [Compound 416]: the pIC50 was over 6.00.

With `Fc1ccc(Nc2nc(-c3ccncn3)nc3ccccc23)cc1Cl` [Compound 1206], the pIC50 was 5.00 to 6.00.

In the case of `COc1ccc2nc(-c3cccnc3)nc(Nc3nc(-c4ccc(Br)cc4)cs3)c2c1` [Compound 415], the pIC50 is 5.00 to 6.00.

As for `Cc1cccc(-c2ccc3nc(-c4cccnc4)nc(Nc4ccc(F)c(Cl)c4)c3c2)c1` [Compound 632], the pIC50 is over 6.00.

Turning to `CC(=O)Nc1nc(-c2cccnc2)nc2ccc(-c3cccc(F)c3F)cc12` [Compound 1369], the negative-log IC50 (pIC50) was 5.00 to 6.00.

In the case of `COc1ccc2nc(-c3cccnc3)nc(Nc3ccc4ccoc4c3)c2c1` [Compound 314], the pIC50 was 5.00 to 6.00.

`CNc1c(-c2cccc(C#N)c2)ccc2nc(-c3cccnc3)nc(C)c12` [Compound 1423]: the pIC50 is under 5.00.

As to `N#Cc1cccc(Nc2nc(-c3ccnnc3)nc3cc(Cl)ccc23)c1` [Compound 1203], the negative-log IC50 (pIC50) was 5.00 to 6.00.

As to `FC(F)Oc1cccc(Nc2nc(-c3ccnnc3)nc3cc(Cl)ccc23)c1` [Compound 1200], the pIC50 was 5.00 to 6.00.

Turning to `COc1ccc(OC)c(-c2ccc3nc(-c4cccnc4)nc(Nc4ccc(F)c(Cl)c4)c3c2)c1` [Compound 645], the pIC50 was 5.00 to 6.00.

Turning to `COc1ccc2nc(-c3cccnc3)nc(Nc3ccccc3C(=O)NCc3cccs3)c2c1` [Compound 884], the pIC50 was under 5.00.

On to `COc1ccc2nc(-c3cccnc3)nc(Nc3cccc4c3OC(F)(F)C(F)(F)O4)c2c1` [Compound 342], for which the negative-log IC50 (pIC50) is 5.00 to 6.00.

For the compound `Nc1nc(-c2cccnc2)nc2ccc(-c3ccccc3Cl)cc12` [Compound 1328], the pIC50 was under 5.00.

For `Fc1ccc(Nc2nc(-c3cnccn3)nc3ccccc23)cc1Cl` [Compound 1219], the negative logarithm of the IC50 (pIC50) was 5.00 to 6.00.

Turning to `COc1ccc2nc(-c3cccnc3)nc(Nc3ccc4c(c3)OCCO4)c2c1` [Compound 297], the pIC50 was under 5.00.

For the compound `CCOc1ccc2nc(-c3cccnc3)nc(Nc3ccc4nonc4c3)c2c1` [Compound 334], the pIC50 was 5.00 to 6.00.

As to `COc1ccc2nc(-c3cccnc3)nc(Nc3nc(-c4cccc(Cl)c4)cs3)c2c1` [Compound 430], the pIC50 is over 6.00.

On to `Cc1cc(Cl)cc2c(Nc3ccc(F)c(Cl)c3)nc(-c3cnccn3)nc12` [Compound 1225], for which the pIC50 was 5.00 to 6.00.

In the case of `CN(C)C(=O)COc1ccc2nc(-c3cccnc3)nc(Oc3ccc(Cl)c(Cl)c3)c2c1` [Compound 847], the pIC50 is over 6.00.

Turning to `CN(C)c1ccc(-c2ccc3c(Nc4ccc(F)c(Cl)c4)nc(-c4cccnc4)nc3c2)cc1` [Compound 694], the pIC50 was over 6.00.

Turning to `CNC(=O)c1sc(Nc2nc(-c3cccnc3)nc3ccc(OC)cc23)nc1-c1ccccc1` [Compound 1124, 2-(6-methoxy-2-(pyridin-3-yl)quinazolin-4-ylamino)-N-methyl-4-phenylthiazole-5-carboxamide], the pIC50 is over 6.00.

With `CCOc1ccc2nc(-c3cccnc3)nc(Nc3nc(-c4cc(F)ccc4F)cs3)c2c1` [Compound 471], the pIC50 was 5.00 to 6.00.

`CNc1nc(-c2cccnc2)nc2ccc(-c3cccc(-c4ccccc4)c3)cc12` [Compound 1346]: the pIC50 was 5.00 to 6.00.

Turning to `CNc1nc(-c2cccnc2)nc2ccc(-c3cccc4occc34)cc12` [Compound 1370], the pIC50 was 5.00 to 6.00.

Regarding `Fc1ccc(Nc2nc(-c3cccnc3)nc3ccc(-c4ccc5c(c4)OCO5)cc23)cc1Cl` [Compound 662], the pIC50 is over 6.00.

`COc1ccc2nc(-c3cccnc3)nc(Nc3nc(-c4ccc(Cl)cc4)c(C)s3)c2c1` [Compound 461]: the pIC50 is 5.00 to 6.00.

In the case of `COc1ccc2nc(-c3cccnc3)nc(Nc3ccc4ccsc4c3)c2c1` [Compound 309], the negative logarithm of the IC50 (pIC50) is 5.00 to 6.00.

For the compound `N#Cc1cccc(Nc2nc(-c3cnccn3)nc3ccccc23)c1` [Compound 1221], the pIC50 was under 5.00.

Regarding `CNc1nc(-c2cccnc2)nc2cc(-c3cccc(C#N)c3)ccc12` [Compound 1364], the pIC50 is 5.00 to 6.00.

Regarding `COc1ccc2nc(-c3cccnc3)nc(Nc3nc(CC(C)C)cs3)c2c1` [Compound 460], the pIC50 is 5.00 to 6.00.

Turning to `CNc1nc(-c2cccnc2)nc2ccc(-c3cccc(F)c3F)c(C)c12` [Compound 1285], the pIC50 is under 5.00.

For the compound `CNc1nc(-c2cccnc2)nc2cc(-c3cccc(OC)c3)c(C)cc12` [Compound 1412], the pIC50 is 5.00 to 6.00.

With `Fc1ccc(-c2ccc3nc(-c4cccnc4)nc(Nc4ccc(F)c(Cl)c4)c3c2)cc1F` [Compound 672], the pIC50 was 5.00 to 6.00.

As for `CCOc1ccc2nc(-c3cccnc3)nc(Nc3nc(-c4ccc(Cl)cc4)cs3)c2c1` [Compound 467], the pIC50 is 5.00 to 6.00.

On to `Cc1cc(Cl)cc2c(Nc3cccc(OC(F)F)c3)nc(-c3ccnnc3)nc12` [Compound 1165], for which the pIC50 is over 6.00.

In the case of `CNc1nc(-c2cccnc2)nc2ccc(-c3cc(OC)ccc3F)cc12` [Compound 1400], the pIC50 was 5.00 to 6.00.

For `CNc1nc(-c2cccnc2)nc2ccc(-c3ccc(C(C)=O)cc3OC)cc12` [Compound 1382], the negative logarithm of the IC50 (pIC50) was over 6.00.

Consider `COc1ccc2nc(-c3cccnc3)nc(Nc3nc(-c4ccc(C(F)(F)F)cc4)cs3)c2c1` [Compound 443], for which the pIC50 is over 6.00.

Consider `CNc1nc(-c2cccnc2)nc2ccc(-c3ccc4sccc4c3)cc12` [Compound 1341], for which the pIC50 was 5.00 to 6.00.

As to `COc1ncc(-c2ccc3nc(-c4cccnc4)nc(Nc4ccc(F)c(Cl)c4)c3c2)cn1` [Compound 666], the pIC50 is over 6.00.

For `CCOc1ccc2nc(-c3cccnc3)nc(Nc3ccccc3C(N)=O)c2c1` [Compound 73], the pIC50 was 5.00 to 6.00.

Consider `CNc1nc(-c2cccnc2)nc2cc(-c3ccc(F)c(F)c3)c(C)cc12` [Compound 1407], for which the pIC50 is 5.00 to 6.00.

Regarding `CNc1nc(-c2cccnc2)nc2c(C)cc(-c3ccc(OC)cc3)cc12` [Compound 1282], the pIC50 was 5.00 to 6.00.

`Fc1cccc(-c2ccc3nc(-c4cccnc4)nc(NC4CCCCC4)c3c2)c1F` [Compound 1516]: the pIC50 was under 5.00.

On to `Cc1cc(Cl)cc2c(Nc3ccccc3C(=O)O)nc(-c3cnccn3)nc12` [Compound 1227], for which the pIC50 is 5.00 to 6.00.

Turning to `COc1ccc2nc(-c3cccnc3)nc(Nc3ccccc3C(=O)NCc3ccc4c(c3)CCC4)c2c1` [Compound 900], the pIC50 was 5.00 to 6.00.

Take `COc1ccc2nc(-c3cccnc3)nc(Nc3nc(-c4c(F)cccc4F)cs3)c2c1` [Compound 459]: the pIC50 is over 6.00.

For `CN(C)c1nc(-c2cccnc2)nc2ccc(-c3cccc(F)c3)cc12` [Compound 1324], the pIC50 was 5.00 to 6.00.

Turning to `COCCN(C)c1nc(-c2cccnc2)nc2ccc(-c3cccc(F)c3F)cc12` [Compound 1391], the pIC50 is under 5.00.

Regarding `COc1cccc(-c2ccc3nc(-c4cccnc4)nc(Nc4ccc(F)c(Cl)c4)c3c2)c1OC` [Compound 644], the pIC50 was 5.00 to 6.00.

With `COc1ccc2nc(-c3cccnc3)nc(Nc3nc(-c4cc(F)ccc4F)cs3)c2c1` [Compound 458], the negative-log IC50 (pIC50) was over 6.00.
